Measurements: PMC6264296, “1,3-Substituted Imidazolidine-2,4,5-triones: Synthesis and Inhibition of Cholinergic Enzymes” (Molecules, 2011)
Where two headings read alike, the source gives them in different places.

Assays:
[1] = molecular target: T1, acetylcholinesterase from electric eel (Electrophorus electricus, UniProt O42275); assay: biochemical
T1 construct: purchased Sigma
Experimental: (§1) The ability of all tested compounds to inhibit acetylcholinesterase from electric eel (Electrophorus electricus L.) and butyrylcholinesterase from equine serum (both purchased from Sigma) was tested. […] The IC50 values were determined by the spectrophotometric Ellman’s method.
(§2) The Ellman’s method is a simple, rapid and direct method to determine the SH and –S–S– group content in proteins. This method is widely used for measuring of cholinesterase activity and effectivity of cholinesterase inhibitors. Cholinesterase activity is measured indirectly by quantifying the concentration of 5-thio-2-nitrobenzoic acid (TNB) ion formed in the reaction between the thiol reagent 5,5′-dithiobis-2-nitrobenzoic acid (DTNB) and thiocholine, a product of substrate (i.e., acetylthiocholine, ATCh) hydrolysis by the cholinesterase. All tested compounds were dissolved in dioxane (concentration 0.01 M) and then diluted in demineralized water (concentration 0.001 M and 0.0001 M). The procedure of determination of IC50 is in detail described in [49]. For determination of IC50 values the inhibition was determined at 12 different compound concentrations with three replicates.

[2] = molecular target: T2, butyrylcholinesterase from equine serum (Equus caballus, UniProt P81908); assay: biochemical
T2 construct: butyrylcholinesterase isolated from equine serum; purchased Sigma; host or cells: equine serum
Experimental: as §1, §2

[3] = Partition coefficient log Kow (n-octanol/water), shake-flask method; type: physicochemical; settings: mean ± SD (n = 3 experiments)
Experimental: Before the partition coefficient is determined, the two solvents are mutually saturated at the temperature of the experiment. To do this, it is practical to shake two large stock bottles, one containing n-octanol and a sufficient quantity of water, and the other containing water and a sufficient quantity of n-octanol, for 24 hours on a mechanical shaker and then to let them stand long enough to allow the phases to separate.
The procedure of determination was the following: n-Octanol (2 mL) was placed in a test tube. Then an octanol solution of the chosen inhibitor (15 μL, 0.01 M) was added. Mixture was intensively shaken for 15 min. This mixture (1 mL) was placed into the cell, and its absorbance at the absorption maximum wavelength was measured. The reference solution was n-octanol. The value of absorbance corresponding to 100% of the chosen inhibitor in n-octanol was obtained. An n-octanol solution of the chosen inhibitor (0.01 M, 15 μL) was added into the mixture of n-octanol and water (1:1, total volume 4 mL). The mixture was intensively shaken for 15 min and then centrifuged (3,000 rpm, 10 min). One mL of the n-octanol layer was put into the cell, and its absorbance at the wavelength of absorption maximum was measured. The comparative solution was n-octanol again. The percentage content of chosen inhibitor in the octanol layer (%) was obtained. The n-octanol/water partition coefficient is defined as Pow = c1/c2, where c1 and c2 are molar concentrations of tested compounds in n-octanol and water. For each compound, at least three determinations were performed.

[4] = electric eel AChE, Ellman's method, mean ± SD (n = 3 experiments), read-out: AChE IC50
[5] = equine serum BChE, Ellman's method, mean ± SD (n = 3 experiments), read-out: BChE IC50

T1 sequence (O42275 24-633): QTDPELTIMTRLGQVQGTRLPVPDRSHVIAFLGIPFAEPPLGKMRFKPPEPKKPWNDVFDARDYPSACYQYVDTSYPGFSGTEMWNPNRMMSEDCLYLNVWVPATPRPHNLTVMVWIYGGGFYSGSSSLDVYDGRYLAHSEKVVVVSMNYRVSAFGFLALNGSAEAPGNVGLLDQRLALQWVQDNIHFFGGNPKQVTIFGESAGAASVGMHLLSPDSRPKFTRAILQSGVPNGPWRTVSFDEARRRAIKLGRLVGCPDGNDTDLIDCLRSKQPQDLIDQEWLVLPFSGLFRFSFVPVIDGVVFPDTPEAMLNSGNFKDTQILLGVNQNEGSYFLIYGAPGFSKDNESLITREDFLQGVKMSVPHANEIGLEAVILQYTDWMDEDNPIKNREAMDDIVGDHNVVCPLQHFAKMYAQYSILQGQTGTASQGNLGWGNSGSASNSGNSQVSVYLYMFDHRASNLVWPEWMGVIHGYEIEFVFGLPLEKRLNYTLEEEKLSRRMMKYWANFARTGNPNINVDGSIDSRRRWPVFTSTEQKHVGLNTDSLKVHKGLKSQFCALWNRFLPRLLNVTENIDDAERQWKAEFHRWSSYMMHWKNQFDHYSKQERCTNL
T2 sequence (P81908 whole entry): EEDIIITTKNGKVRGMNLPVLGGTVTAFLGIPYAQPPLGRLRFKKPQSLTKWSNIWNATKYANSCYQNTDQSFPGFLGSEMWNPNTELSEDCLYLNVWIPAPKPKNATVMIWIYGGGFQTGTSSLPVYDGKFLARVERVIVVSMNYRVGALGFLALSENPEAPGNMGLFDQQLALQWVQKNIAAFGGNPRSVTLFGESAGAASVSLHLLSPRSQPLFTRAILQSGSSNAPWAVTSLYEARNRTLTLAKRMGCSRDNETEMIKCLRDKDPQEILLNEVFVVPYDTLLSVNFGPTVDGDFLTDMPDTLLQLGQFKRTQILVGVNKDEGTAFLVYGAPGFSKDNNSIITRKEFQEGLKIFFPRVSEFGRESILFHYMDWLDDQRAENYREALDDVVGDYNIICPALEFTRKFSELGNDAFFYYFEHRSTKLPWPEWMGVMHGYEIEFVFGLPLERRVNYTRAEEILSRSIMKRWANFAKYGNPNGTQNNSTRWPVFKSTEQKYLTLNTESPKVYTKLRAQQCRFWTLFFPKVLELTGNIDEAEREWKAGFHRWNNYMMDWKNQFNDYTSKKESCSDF

| SMILES | IC50 [1, 4] [µM] | IC50 [2, 5] [µM] | log Kow [3] | IC50 [1] [µM] | IC50 [2] [µM] | log Kow ([3]; listed as 4f) |
| --- | --- | --- | --- | --- | --- | --- |
| C[C@H](c1nc2ccc(F)cc2s1)N1C(=O)C(=O)N(c2ccccc2)C1=O [Compound 3a, 1-[(1R)-1-(6-Fluoro-1,3-benzothiazol-2-yl)ethyl]-3-phenylimidazolidine-2,4,5-trione] | 21.4 ± 0.19 | 14.5 ± 0.21 |  |  |  |  |
| C[C@H](c1nc2ccc(F)cc2s1)N1C(=O)C(=O)N(c2cccc(C(F)(F)F)c2)C1=O [Compound 3b, 1-(3-Trifluoromethylphenyl)-3-[(1R)-1-(6-fluoro-1,3-benzothiazol-2-yl)ethyl]imidazolidine-2,4,5-trione] | 23.4 ± 0.28 | 17.4 ± 0.37 | 1.12 ± 0.15 |  |  |  |
| COc1ccc(N2C(=O)C(=O)N([C@H](C)c3nc4ccc(F)cc4s3)C2=O)cc1 [Compound 3c, 1-(4-Methoxyphenyl)-3-[(1R)-1-(6-fluoro-1,3-benzothiazol-2-yl)ethyl]imidazolidine-2,4,5-trione] | 22.4 ± 0.21 | 13.2 ± 0.22 | 0.69 ± 0.02 |  |  |  |
| CC(C)c1ccc(N2C(=O)C(=O)N([C@H](C)c3nc4ccc(F)cc4s3)C2=O)cc1 [Compound 3d, 1-(4-Isopropylphenyl)-3-[(1R)-1-(6-fluoro-1,3-benzothiazol-2-yl)ethyl]imidazolidine-2,4,5-trione] | 16.6 ± 0.29 | 1.66 ± 0.14 |  |  |  |  |
| C[C@H](c1nc2ccc(F)cc2s1)N1C(=O)C(=O)N(c2ccc(Cl)cc2)C1=O [Compound 3e, 1-(4-Chlorophenyl)-3-[(1R)-1-(6-fluoro-1,3-benzothiazol-2-yl)ethyl]imidazolidine-2,4,5-trione] |  |  |  | 13.8 ± 0.13 | 25.7 ± 0.29 |  |
| C[C@H](c1nc2ccc(F)cc2s1)N1C(=O)C(=O)N(c2ccc(C#N)cc2)C1=O [Compound 3f, 1-(4-Cyanophenyl)-3-[(1R)-1-(6-fluoro-1,3-benzothiazol-2-yl)ethyl]imidazolidine-2,4,5-trione] | 19.1 ± 0.27 | 10.5 ± 0.18 | 0.41 ± 0.02 |  |  | lowest lipophilicity |
| CC(C)c1cccc(C(C)C)c1N1C(=O)C(=O)N([C@H](C)c2nc3ccc(F)cc3s2)C1=O [Compound 3g, 1-(2,6-Diisopropylphenyl)-3-[(1R)-1-(6-fluoro-1,3-benzothiazol-2-yl)ethyl]imidazolidine-2,4,5-trione] | 15.1 ± 0.29 | 30.2 ± 0.45 | 0.98 ± 0.08 |  |  |  |
| Cc1ccc(N2C(=O)C(=O)N([C@H](C)c3nc4ccc(F)cc4s3)C2=O)cc1Cl [Compound 3h, 1-(3-Chloro-4-methylphenyl)-3-[(1R)-1-(6-fluoro-1,3-benzothiazol-2-yl)ethyl]imidazolidine-2,4,5-trione] |  |  | 0.50 ± 0.02 | 15.5 ± 0.2 | 17 ± 0.1 |  |
| C[C@H](c1nc2ccc(F)cc2s1)N1C(=O)C(=O)N(c2cc(Cl)cc(Cl)c2)C1=O [Compound 3j, 1-(3,5-Dichlorophenyl)-3-[(1R)-1-(6-fluoro-1,3-benzothiazol-2-yl)ethyl]imidazolidine-2,4,5-trione] |  |  | 0.77 ± 0.03 | 17 ± 0.38 | 29.5 ± 0.39 |  |
| C[C@H](c1nc2ccc(F)cc2s1)N1C(=O)C(=O)N(Cc2ccccc2)C1=O [Compound 3k, 1-Benzyl-3-[(1R)-1-(6-fluoro-1,3-benzothiazol-2-yl)ethyl]imidazolidine-2,4,5-trione] | 18.6 ± 0.16 | 12.6 ± 0.11 | 1.06 ± 0.09 |  |  |  |
